From paper PMC9057277 (RSC Advances, 2020)
pIC50: −log10 of the molar value. Like-named read-outs stand apart in the source and are kept apart here. Blank lines part the entries; values can stand above or below the compound they belong to.

Assays:
[1] = parameters: method as in PMID 30072617; conditions: male baboon, 90 min p.i. ref 18; cited from earlier work
purified ovine COX-1 = target: T1, purified ovine COX-1 (Ovis aries, UniProt P05979); experiment: COX Fluorescent Inhibitor Screening Assay Kit, COX-1
T1 sequence (P05979 25-600): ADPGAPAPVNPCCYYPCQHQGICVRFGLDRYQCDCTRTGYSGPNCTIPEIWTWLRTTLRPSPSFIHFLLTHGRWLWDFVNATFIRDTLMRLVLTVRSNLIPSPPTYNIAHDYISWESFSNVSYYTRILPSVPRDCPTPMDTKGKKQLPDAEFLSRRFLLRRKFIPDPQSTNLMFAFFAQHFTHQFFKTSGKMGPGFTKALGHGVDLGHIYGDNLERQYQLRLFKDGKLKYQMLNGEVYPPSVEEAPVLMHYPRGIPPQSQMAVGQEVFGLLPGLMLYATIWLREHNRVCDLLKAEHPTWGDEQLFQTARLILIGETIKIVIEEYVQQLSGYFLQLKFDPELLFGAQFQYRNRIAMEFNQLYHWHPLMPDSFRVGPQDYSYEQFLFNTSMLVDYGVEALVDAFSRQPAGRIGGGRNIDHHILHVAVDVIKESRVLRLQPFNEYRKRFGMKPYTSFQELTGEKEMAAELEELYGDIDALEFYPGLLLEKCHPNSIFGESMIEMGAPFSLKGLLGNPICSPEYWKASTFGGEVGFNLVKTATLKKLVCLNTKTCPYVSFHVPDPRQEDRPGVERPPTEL
Protocol: 7.4.1 COX inhibition assay
The COX inhibition potency against ovine COX-1 and human COX-2 was determined using the
fluorescence-based COX assay ’COX Fluorescent Inhibitor Screening Assay Kit‘ (catalog number
reported by us.7 In brief, as a measure of COX mediated conversion of arachidonic acid to PG H2 in the
presence of different inhibitor concentrations this assay utilizes the peroxidase component of COX and
analyzes the formation of fluorescent resorufin. All compounds were assayed in a concentration range
of 10 nM to 100 μM, and every inhibitor concentration was assayed in duplicate.
as internal control. IC50 values were estimated using a nonlinear logistic regression ﬁtting procedure
(sigmoidal dose−response model) with Prism Software.

recombinant human COX-2 = target: T2, recombinant human COX-2 (Homo sapiens, UniProt P35354); experiment: COX Fluorescent Inhibitor Screening Assay Kit, COX-2; format: biochemical
T2 construct: purchased Cayman Chemical, Ann Arbor, MI 700100
T2 sequence (P35354 18-604): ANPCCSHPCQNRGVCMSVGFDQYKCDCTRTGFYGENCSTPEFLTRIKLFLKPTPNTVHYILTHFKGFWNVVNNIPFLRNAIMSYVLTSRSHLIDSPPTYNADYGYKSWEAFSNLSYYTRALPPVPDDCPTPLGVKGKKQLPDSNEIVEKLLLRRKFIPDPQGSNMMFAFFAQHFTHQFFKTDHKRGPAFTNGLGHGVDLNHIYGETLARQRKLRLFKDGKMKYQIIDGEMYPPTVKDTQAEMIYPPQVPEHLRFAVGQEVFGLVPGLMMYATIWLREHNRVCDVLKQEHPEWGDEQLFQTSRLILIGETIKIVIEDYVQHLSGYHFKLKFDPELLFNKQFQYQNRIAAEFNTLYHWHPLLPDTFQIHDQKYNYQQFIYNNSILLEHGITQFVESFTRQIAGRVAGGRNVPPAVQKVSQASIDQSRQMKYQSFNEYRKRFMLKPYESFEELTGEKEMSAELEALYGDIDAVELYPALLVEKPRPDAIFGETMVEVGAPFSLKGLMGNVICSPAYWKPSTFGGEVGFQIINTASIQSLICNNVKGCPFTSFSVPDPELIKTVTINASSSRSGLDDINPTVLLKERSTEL

COX-1 = test system: COX-1; parameters: method as in PMID 21900596; conditions: 14C-based COX assay, previously reported by Uddin et al. ref 21; cited from earlier work
COX-2 = test system: COX-2; parameters: method as in PMID 21900596; conditions: cited from earlier work
[2] = Stability towards liver microsomes of mice; conditions: oxidative conditions plus MgCl2 5 mM, alamethicin 50 μg/mL, UDPGA 5 mM
log D7.4 by HPLC method = format: physicochemical; conditions: HPLC retention on ODP-50 4B column (Shodex Asahipak); pH 7.4, HPLC-based method
[3] = Metabolic stability in vivo: blood clearance, blood components, radiometabolites; parameters: species or system male Wistar rats; conditions: for half-life: male, Wistar, rat, arterial blood, iv, 70 MBq, i.v., arterial blood samples; for half-life / Intact compound in blood plasma: rats; for Intact compound in blood plasma: radio-HPLC
[4] = Ex vivo biodistribution in healthy rats; conditions: for Biodistribution BAT: brown adipose tissue; for Biodistribution WAT: white adipose tissue
hCA-IX = test system: hCA-IX; parameters: method as in PMID 23875171, PMID 16290146; conditions: ref 49 and 56; cited from earlier work
hCA-XII = test system: hCA-XII; parameters: method as in PMID 23875171, PMID 16290146; conditions: ref 49 and 56; cited from earlier work
protein kinase B (PKB) = target: protein kinase B (PKB); parameters: method as in PMID 16757698, PMID 14973075; conditions: ref 50 and 53; cited from earlier work
[5] = target: sarcoplasmic/ER Ca2+ ATPase (SERCA); parameters: method as in PMID 23875171, PMID 12076251; conditions: ref 49 and 55; cited from earlier work
[6] = target: 3-phosphoinositide-dependent kinase 1 (PDK1); conditions: cited from earlier work
CYP3A4 = test system: CYP3A4; parameters: method as in PMID 10681375, PMID 22336956; conditions: ref 12,51; cited from earlier work
[7] = target: phosphodiesterase-5 (PDE51A); parameters: method as in PMID 17383621; conditions: ref 54; cited from earlier work
[8] = i.v., 5 min p.i., n = 8, mean ± SD
[9] = i.v., 60 min p.i., n = 8, mean ± SD

Structure (SMILES): [11CH3]c1ccc(-c2cc(C(F)(F)F)nn2-c2ccc(S(N)(=O)=O)cc2)cc1 [[^11C]celecoxib]
intact radiotracer in blood [1]: 17%

pIC50 (purified ovine COX-1): < 4.00
pIC50 (recombinant human COX-2): 6.29
Selectivity index (recombinant human COX-2; IC50 (COX-1)/IC50 (COX-2)): >196
Structure (SMILES): Cc1ccc(-c2cc(CF)nn2-c2ccc(S(C)(=O)=O)cc2)cc1 [5a]
pIC50 (COX-1): < 5.40
pIC50 (COX-2; 14C-based COX assay, previously reported by Uddin et al. ref 21): 6.22
Selectivity index (COX-2; IC50 (COX-1)/IC50 (COX-2), from values previously reported by Uddin et al. ref 21): >7

glucuronidation in murine liver microsomes [2]: not observed
chromatographic logD (log D7.4 by HPLC method): 2.65
half-life ([3]; read-out: t1/2 distribution (blood clearance of intact compound)): 1 min
half-life ([3]; read-out: t1/2 elimination (blood clearance of intact compound)): 20.7 min
Radioactivity distribution in blood components: erythrocytes ([3]; rat blood, 60 min p.i., + TCA): 23%
Radioactivity distribution in blood components: plasma ([3]; rat blood, 60 min p.i., + TCA): 71%
Radioactivity distribution in blood components: plasma supernatant ([3]; rat blood, 60 min p.i., + TCA): 35%
Radioactivity distribution in blood components: plasma pellet (bound to plasma proteins) ([3]; rat blood, 60 min p.i., + TCA precipitation): 29%
Radioactivity distribution in blood components: erythrocytes ([3]; rat blood, 60 min p.i., - TCA): 21%
Radioactivity distribution in blood components: plasma ([3]; rat blood, 60 min p.i., - TCA): 67%
Radioactivity distribution in blood components: plasma pellet ([3]; rat blood, 60 min p.i., - TCA): 1%
Radioactivity distribution in blood components: plasma supernatant ([3]; rat blood, 60 min p.i., - TCA): 72%
Intact compound in blood plasma ([3]; 20 min p.i.): 35%
Intact compound in blood plasma ([3]; 60 min p.i.): 30%
liver-to-bladder ratio (hepatobiliary vs renal excretion) ([4]; 60 min p.i.): 2.6
Biodistribution BAT [4, 8]: 2.79 ± 0.85 SUV
Biodistribution BAT [4, 9]: 1.12 ± 0.22 SUV
Biodistribution adrenals [4, 8]: 2.95 ± 0.73 SUV
Biodistribution blood [4, 8]: 0.32 ± 0.02 SUV
Biodistribution brain [4, 8]: 0.5 ± 0.1 SUV
Biodistribution femur [4, 8]: 0.6 ± 0.05 SUV
Biodistribution harderian gland [4, 8]: 2.37 ± 0.19 SUV
Biodistribution heart [4, 8]: 0.86 ± 0.07 SUV
Biodistribution intestine [4, 8]: 14.17 ± 1.43 %ID
Biodistribution kidneys [4, 8]: 2 ± 0.42 SUV
Biodistribution liver [4, 8]: 3.37 ± 0.63 SUV
Biodistribution lung [4, 8]: 1.06 ± 0.06 SUV
Biodistribution muscle [4, 8]: 0.63 ± 0.09 SUV
Biodistribution pancreas [4, 8]: 1.6 ± 0.16 SUV
Biodistribution skin & hair [4, 8]: 0.98 ± 0.09 SUV
Biodistribution spleen [4, 8]: 0.84 ± 0.12 SUV
Biodistribution stomach [4, 8]: 1.35 ± 0.6 %ID
Biodistribution testes [4, 8]: 0.47 ± 0.05 SUV
Biodistribution thymus [4, 8]: 1.09 ± 0.23 SUV
Biodistribution thyroid gland [4, 8]: 1.01 ± 0.1 SUV
Biodistribution urine (calc.) [4, 8]: 0.02 ± 1.08 %ID
Biodistribution adrenals [4, 9]: 0.9 ± 0.13 SUV
Biodistribution blood [4, 9]: 0.08 ± 0.02 SUV
Biodistribution brain [4, 9]: 0.09 ± 0.01 SUV
Biodistribution femur (femur uptake, 18F-defluorination) [4, 9]: 1.0 ± 0.2 SUV
Biodistribution harderian gland [4, 9]: 1.08 ± 0.18 SUV
Biodistribution heart [4, 9]: 0.18 ± 0.02 SUV
Biodistribution intestine [4, 9]: 41.52 ± 3.98 %ID
Biodistribution kidneys [4, 9]: 0.57 ± 0.14 SUV
Biodistribution liver [4, 9]: 0.74 ± 0.14 SUV
Biodistribution lung [4, 9]: 0.25 ± 0.04 SUV
Biodistribution muscle [4, 9]: 0.23 ± 0.05 SUV
Biodistribution pancreas [4, 9]: 0.57 ± 0.14 SUV
Biodistribution skin & hair [4, 9]: 0.32 ± 0.09 SUV
Biodistribution spleen [4, 9]: 0.28 ± 0.08 SUV
Biodistribution stomach [4, 9]: 0.94 ± 0.58 %ID
Biodistribution testes [4, 9]: 0.24 ± 0.06 SUV
Biodistribution thymus [4, 9]: 0.23 ± 0.04 SUV
Biodistribution thyroid gland [4, 9]: 0.27 ± 0.06 SUV
Biodistribution urine (calc.) [4, 9]: 15.85 ± 2.16 %ID
Biodistribution WAT [4, 8]: 1.73 ± 0.84 SUV
Biodistribution WAT [4, 9]: 1.81 ± 0.8 SUV
Structure (SMILES): Cc1ccc(-c2cc(CC[18F])nn2-c2ccc(S(C)(=O)=O)cc2)cc1 [[^18F]5b]

Structure (SMILES): Cc1ccc(-c2cc(C(F)(F)F)nn2-c2ccc(S(N)(=O)=O)cc2)cc1 [Celecoxib]
pIC50 (hCA-IX): 7.80
pIC50 (hCA-XII): 7.74
pIC50 (protein kinase B (PKB)): 4.55
pIC50 [5]: 4.46
pIC50 ([6]; ref 52): 5.46
pIC50 ([6]; ref 53): 4.32
extent of metabolism to the hydroxyl form by CYP3A4 (CYP3A4): < 25%
pIC50 [7]: 4.80
